The subject of the assay is HCT116 cells. The assay is described as follows: In vitro cytotoxicity measured by the cell colony formation assay. Particulars: 72 h drug incubation, colonies counted after 7 days, ID50 = drug concentration producing 50% inhibition of colony formation, read-out: IN VITRO ID 50 (nm) HCT116. It counts as cell-based. On the procedure: In Vitro Cytotoxicity Measured by the Cell Colony Formation Assay
Four hundred cells (HCT116) were plated in 60 mm Petri dishes containing 2.7 mL of medium (modified McCoy's 5a medium containing 10% fetal bovine serum and 100 units/mL penicillin and 100 µg/mL streptomycin). The cells were incubated in a CO2 incubator at 37° C. for 5 h for attachment to the bottom of Petri dishes. The compounds identified in Example 2 were made up fresh in medium at ten times the final concentration, and then 0.3 mL of this stock solution was added to the 2.7 mL of medium in the dish. The cells were then incubated with drugs for 72 h at 37° C. At the end of incubation the drug-containing media were decanted, the dishes were rinsed with 4 mL of Hank's Balance Salt Solution (HBSS), 5 mL of fresh medium was added, and the dishes were returned to the incubator for colony formation. The cell colonies were counted using a colony counter after incubation for 7 days.

Molecules are shown by their SMILES.

With `CC(=O)O[C@H]1C(=O)[C@@]2(C)[C@H]([C@H](OC(=O)c3ccccc3)[C@]3(O)C[C@H](OC(=O)[C@H](O)[C@@H](NC(=O)c4ccccc4)c4ccccc4)C(C)=C1C3(C)C)[C@]1(OC(C)=O)CO[C@@H]1C[C@@H]2O` [taxol], the IC50 amounted to 2.1 nM.

Values taken from patent US6610860B2, “C7 ester substituted taxanes” (FSU Research Foundation, Inc., priority 2000, dated 2003).
